Source: patent US11472791B2 (Incyte Corporation, priority 2019, dated 2022)

Target: CDK2/Cyclin E1 (Homo sapiens (Human), UniProt P24941)
Experiment: CDK2/Cyclin E1 HTRF enzyme activity assay
Type: biochemical
Conditions: 1 mM ATP
Description: Assays are conducted in white 384-well polystyrene plates in a final reaction volume of 8 μL. […] HTRF signals are read after 1 hour at room temperature on a PHERAstar FS plate reader (BMG Labtech). Data is analyzed with IDBS XLFit and GraphPad Prism 5.0 software using a three or four parameter dose response curve to determine IC50 for each compound.

| IC50 [nM] | Compound |
| --- | --- |
| 500 to 1000 | CS(=O)(=O)N1CCCC(Nc2ncc(C(F)(F)F)c(-c3cnn(C4CCOCC4)c3)n2)C1 (racemic) [Example 19, (±)-N-(1-(Methylsulfonyl)piperidin-3-yl)-4-(1-(tetrahydro-2H-pyran-4-yl)-1H-pyrazol-4-yl)-5-(trifluoromethyl)pyrimidin-2-amine] |
| < 50 | C[C@H]1C[C@H](Nc2ncc(C(F)(F)F)c(-c3cnn(C4CCOCC4)c3)n2)CCN1S(C)(=O)=O (racemic) [Example 21, (±)-N-((2S,4R)-2-Methyl-1-(methylsulfonyl)piperidin-4-yl)-4-(1-(tetrahydro-2H-pyran-4-yl)-1H-pyrazol-4-yl)-5-(trifluoromethyl)pyrimidin-2-amine] |
| < 50 | CN1CCC(S(=O)(=O)N2CCC(Nc3ncc(C(F)(F)F)c(-c4cnn(CC(C)(C)O)c4)n3)CC2)C1 (racemic) [Example 86, (±)-2-Methyl-1-(4-(2-((1-((1-methylpyrrolidin-3-yl)sulfonyl)piperidin-4-yl)amino)-5-(trifluoromethyl)pyrimidin-4-yl)-1H-pyrazol-1-yl)propan-2-ol] |
| < 50 | CC(O)(Cn1cc(-c2nc(NC3CCN(S(C)(=O)=O)CC3)ncc2C(F)(F)F)cn1)C(F)(F)F (racemic) [Example 95, (±)-1,1,1-Trifluoro-2-methyl-3-(4-(2-((1-(methylsulfonyl)piperidin-4-yl)amino)-5-(trifluoromethyl)pyrimidin-4-yl)-1H-pyrazol-1-yl) propan-2-ol] |
| < 50 | CS(=O)(=O)N1CCC(Nc2ncc(C#N)c(-c3cnn(-c4ccc(CNC5CCN(S(C)(=O)=O)C5)cc4Cl)c3)n2)CC1 (racemic) [Example 198, (±)-4-(1-(2-Chloro-4-(((1-(methylsulfonyl)pyrrolidin-3-yl)amino)methyl)phenyl)-1H-pyrazol-4-yl)-2-((1-(methylsulfonyl)piperidin-4-yl)amino)pyrimidine-5-carbonitrile] |
| < 50 | CCS(=O)(=O)N1CCC(Nc2ncc(C#N)c(-c3cnn(-c4ccc(CN[C@@H]5CCCC[C@@]5(C)O)cc4Cl)c3)n2)CC1 (racemic) [Example 287, (±)-4-(1-(2-Chloro-4-((((1r,2r)-2-hydroxy-2-methylcyclohexyl)amino)methyl)phenyl)-1H-pyrazol-4-yl)-2-((1-(ethylsulfonyl)piperidin-4-yl)amino)pyrimidine-5-carbonitrile] |
| < 50 | CN(C)C1CCC(S(=O)(=O)N2CCC(Nc3ncc(C(F)(F)F)c(-c4cnn(CC(C)(C)O)c4)n3)CC2)CC1 (single isomer, unassigned) [88 (peak 1), 1-(4-(2-((1-((4-(Dimethylamino)cyclohexyl)sulfonyl)piperidin-4-yl)amino)-5-(trifluoromethyl)pyrimidin-4-yl)-1H-pyrazol-1-yl)-2-methylpropan-2-ol] |
| < 50 | CN(C)C1CCC(S(=O)(=O)N2CCC(Nc3ncc(C(F)(F)F)c(-c4cnn(CC(C)(C)O)c4)n3)CC2)CC1 (single isomer, unassigned) [88 (peak 2), 1-(4-(2-((1-((4-(Dimethylamino)cyclohexyl)sulfonyl)piperidin-4-yl)amino)-5-(trifluoromethyl)pyrimidin-4-yl)-1H-pyrazol-1-yl)-2-methylpropan-2-ol] |
| < 50 | CCN(CC)C1CCC(S(=O)(=O)N2CCC(Nc3ncc(C(F)(F)F)c(-c4cnn(CC(C)(C)O)c4)n3)CC2)CC1 (single isomer, unassigned) [89 (peak 1), 1-(4-(2-((1-((4-(Diethylamino)cyclohexyl)sulfonyl)piperidin-4-yl)amino)-5-(trifluoromethyl)pyrimidin-4-yl)-1H-pyrazol-1-yl)-2-methylpropan-2-ol] |
| < 50 | CCN(CC)C1CCC(S(=O)(=O)N2CCC(Nc3ncc(C(F)(F)F)c(-c4cnn(CC(C)(C)O)c4)n3)CC2)CC1 (single isomer, unassigned) [89 (peak 2), 1-(4-(2-((1-((4-(Diethylamino)cyclohexyl)sulfonyl)piperidin-4-yl)amino)-5-(trifluoromethyl)pyrimidin-4-yl)-1H-pyrazol-1-yl)-2-methylpropan-2-ol] |
| < 50 | CC(C)(O)Cn1cc(-c2nc(NC3CCN(S(=O)(=O)C4CCC(N5CCC5)CC4)CC3)ncc2C(F)(F)F)cn1 (single isomer, unassigned) [90 (peak 1), 1-(4-(2-((1-((4-(Azetidin-1-yl)cyclohexyl)sulfonyl)piperidin-4-yl)amino)-5-(trifluoromethyl)pyrimidin-4-yl)-1H-pyrazol-1-yl)-2-methylpropan-2-ol] |
| < 50 | CC(C)(O)Cn1cc(-c2nc(NC3CCN(S(=O)(=O)C4CCC(N5CCC5)CC4)CC3)ncc2C(F)(F)F)cn1 (single isomer, unassigned) [90 (peak 2), 1-(4-(2-((1-((4-(Azetidin-1-yl)cyclohexyl)sulfonyl)piperidin-4-yl)amino)-5-(trifluoromethyl)pyrimidin-4-yl)-1H-pyrazol-1-yl)-2-methylpropan-2-ol] |
| < 50 | CC(C)(O)Cn1cc(-c2nc(NC3CCN(S(=O)(=O)C4CCC(N5CCCC5)CC4)CC3)ncc2C(F)(F)F)cn1 (single isomer, unassigned) [91 (peak 1), 2-Methyl-1-(4-(2-((1-((4-(pyrrolidin-1-yl)cyclohexyl)sulfonyl)piperidin-4-yl)amino)-5-(trifluoromethyl)pyrimidin-4-yl)-1H-pyrazol-1-yl)propan-2-ol] |
| < 50 | CC(C)(O)Cn1cc(-c2nc(NC3CCN(S(=O)(=O)C4CCC(N5CCCC5)CC4)CC3)ncc2C(F)(F)F)cn1 (single isomer, unassigned) [91 (peak 2), 2-Methyl-1-(4-(2-((1-((4-(pyrrolidin-1-yl)cyclohexyl)sulfonyl)piperidin-4-yl)amino)-5-(trifluoromethyl)pyrimidin-4-yl)-1H-pyrazol-1-yl)propan-2-ol] |
| < 50 | O=S(=O)(c1cn[nH]c1)N1CCC(Nc2ncc(C(F)(F)F)c(-c3cnn(CC(F)(F)F)c3)n2)CC1 [Example 2, N-(1-((1H-Pyrazol-4-yl)sulfonyl)piperidin-4-yl)-4-(1-(2,2,2-trifluoroethyl)-1H-pyrazol-4-yl)-5-(trifluoromethyl)pyrimidin-2-amine] |
| < 50 | CS(=O)(=O)N1CCC(Nc2ncc(C(F)(F)F)c(-c3cnn(C4CCOCC4)c3)n2)CC1 [Example 3, N-(1-(Methylsulfonyl)piperidin-4-yl)-4-(1-(tetrahydro-2H-pyran-4-yl)-1H-pyrazol-4-yl)-5-(trifluoromethyl)pyrimidin-2-amine] |
| < 50 | N#CCS(=O)(=O)N1CCC(Nc2ncc(C(F)(F)F)c(-c3cnn(C4CCOCC4)c3)n2)CC1 [Example 4, 2-((4-((4-(1-(Tetrahydro-2H-pyran-4-yl)-1H-pyrazol-4-yl)-5-(trifluoromethyl)pyrimidin-2-yl)amino)piperidin-1-yl)sulfonyl)acetonitrile] |
| < 50 | O=S(=O)(Cc1ccccc1)N1CCC(Nc2ncc(C(F)(F)F)c(-c3cnn(C4CCOCC4)c3)n2)CC1 [Example 5, N-(1-(Benzylsulfonyl)piperidin-4-yl)-4-(1-(tetrahydro-2H-pyran-4-yl)-1H-pyrazol-4-yl)-5-(trifluoromethyl)pyrimidin-2-amine] |
| < 50 | O=S(=O)(C1CCOCC1)N1CCC(Nc2ncc(C(F)(F)F)c(-c3cnn(C4CCOCC4)c3)n2)CC1 [Example 6, 4-(1-(Tetrahydro-2H-pyran-4-yl)-1H-pyrazol-4-yl)-N-(1-((tetrahydro-2H-pyran-4-yl)sulfonyl)piperidin-4-yl)-5-(trifluoromethyl)pyrimidin-2-amine] |
| < 50 | N#Cc1cccc(S(=O)(=O)N2CCC(Nc3ncc(C(F)(F)F)c(-c4cnn(C5CCOCC5)c4)n3)CC2)c1 [Example 7, 3-((4-((4-(1-(Tetrahydro-2H-pyran-4-yl)-1H-pyrazol-4-yl)-5-(trifluoromethyl)pyrimidin-2-yl)amino)piperidin-1-yl)sulfonyl)benzo nitrile] |
| < 50 | O=C(Nc1ccc(S(=O)(=O)N2CCC(Nc3ncc(C(F)(F)F)c(-c4cnn(C5CCOCC5)c4)n3)CC2)cc1)N1CCOCC1 [Example 8, N-(4-((4-((4-(1-(Tetrahydro-2H-pyran-4-yl)-1H-pyrazol-4-yl)-5-(trifluoromethyl)pyrimidin-2-yl)amino)piperidin-1-yl)sulfonyl)phenyl)morpholine-4-carboxamide] |
| < 50 | Cn1cc(S(=O)(=O)N2CCC(Nc3ncc(C(F)(F)F)c(-c4cnn(C5CCOCC5)c4)n3)CC2)cn1 [Example 9, N-(1-((1-Methyl-1H-pyrazol-4-yl)sulfonyl)piperidin-4-yl)-4-(1-(tetrahydro-2H-pyran-4-yl)-1H-pyrazol-4-yl)-5-(trifluoromethyl)pyrimidin-2-amine] |
| < 50 | CS(=O)(=O)N1CCC(Nc2ncc(C(F)(F)F)c(-c3cnn(C4CCCCC4)c3)n2)CC1 [Example 12, 4-(1-Cyclohexyl-1H-pyrazol-4-yl)-N-(1-(methylsulfonyl)piperidin-4-yl)-5-(trifluoromethyl)pyrimidin-2-amine] |
| < 50 | CS(=O)(=O)N1CCC(Nc2ncc(C(F)(F)F)c(-c3cnn(-c4ccccc4F)c3)n2)CC1 [Example 13, 4-(1-(2-Fluorophenyl)-1H-pyrazol-4-yl)-N-(1-(methylsulfonyl)piperidin-4-yl)-5-(trifluoromethyl)pyrimidin-2-amine] |
| < 50 | CS(=O)(=O)N1CCC(Nc2ncc(C(F)(F)F)c(-c3cnn(-c4ccccc4Cl)c3)n2)CC1 [Example 14, 4-(1-(2-Chlorophenyl)-1H-pyrazol-4-yl)-N-(1-(methylsulfonyl)piperidin-4-yl)-5-(trifluoromethyl)pyrimidin-2-amine] |
| 50 to 200 | Cc1nn(C2CCN(C)CC2)cc1-c1nc(NC2CCN(S(C)(=O)=O)CC2)ncc1F [Example 15, 5-Fluoro-4-(3-methyl-1-(1-methylpiperidin-4-yl)-1H-pyrazol-4-yl)-N-(1-(methylsulfonyl)piperidin-4-yl)pyrimidin-2-amine] |
| 50 to 200 | Cc1nn(C2CCN(C)CC2)cc1-c1ccnc(NC2CCN(S(C)(=O)=O)CC2)n1 [Example 16, 4-(3-Methyl-1-(1-methylpiperidin-4-yl)-1H-pyrazol-4-yl)-N-(1-(methylsulfonyl)piperidin-4-yl)pyrimidin-2-amine] |
